Patent US5098933A, “Pharmaceutically useful Michael addition products of unsaturated aldehydes and ketones and ascorbic acid” (Theracel Corporation, priority 1990, dated 1992)
Read-outs that look alike come from different tables or passages of the source.

Assays:
[1] = test system: plaque forming cells, antibody specific to sheep red blood cells; assay: Jerne Hemolytic Plaque Assay; format: in vivo, mice
Protocol: This assay measures the IgM or IgG isotypes of specific antibody produced by antigen used to immunize the mice. […] The direct assay detects IgM and the indirect assay detects IgG-specific antibody.
Washed spleen cells are added to an agarose (FMC, Rockland, Me.) preparation containing sheep red blood cells (SRBC) and guinea pig complement. A drop of this mixture is transferred to a small petri dish; a cover slip is then placed over the drop to flatten it. The agarose prep is allowed to solidify. Then, the dishes are placed in a small humidified changer inside a CO-2 incubator overnight.
Small pinpoint cleared areas (plaques) will be observed under the cover slip. The cleared areas are caused by antibody, specific to the SRBC's being released by stimulated spleen cells and in conjunction with the complement, lyse surrounding SRBC's. These plaque forming cells (PFC's) are counted, and calculations are performed to obtain PFC's per […] spleen cells.
1. Spleens are harvested from mice according to a standard procedure and adjusted to a final concentration of 20% in […].
14. Count and record the number of hemolytic plaques per plate. Average plaque counts between the duplicate sets. Multiply the average number of plaques per group by 2.5 to obtain the number of plaque forming cells per million spleen cells.

[2] = test system: T- and B- lymphocyte isolated from mouse spleens; assay: Lymphocyte Blastogenesis Assay; format: in vivo; conditions: for RPMI CONTROL: no mitogen (Table 9); for activation at 25 mg/kg / activation at 50 mg/kg / activation at 100 mg/kg / activation at 200 mg/kg: Mus musculus, Lymphocyte
From the text: This assay measures the ability of the compound under test to affect DNA synthesis and mitosis of T- and B- lymphocyte isolated from mouse spleens.
Mitogens are substances which stimulate DNA synthesis and mitosis. The mitogens used in these studies were phytohemaglutinin (PHA) which is isolated from the red kidney bean and concanavalin-A (Con-A) which is isolated form the jack bean. Con-A binds to specific receptors (glycoproteins) containing mannosyl or glycosyl moieties and stimulates all murine T-cells to synthesize DNA, divide, and release lymphokines. Con-A in a soluble form allows distinction between T- and B-cells in the mouse, because although both T- and B-cells can bind 106 molecules of Con-A per cell, only T-cells are stimulated when this lectin is presented in a soluble form. PHA stimulates only subpopulations, T-2 cells, of T-cells in the mouse. Also, Con-A stimulates the production of cytokines such as Interleukin-2 (IL-2). In humans, both T- and B-cells are probably stimulated. The activation of B-cells by PHA may be indirect and mediated by the release of soluble mediators from PHA-activated T-cells.
The lymphocyte blastogenesis test is a method to assess the ability of immunocompetent T- or B-cells to respond to a polyclonal mitogen (i.e. PHA or Con-A) or a specific antigen. It may be performed on lymphocytes obtained from mice treated with immunostimulators in vivo or the entire assay can be performed in vitro. The assay as described below uses minimal doses of polyclonal mitogens to induce blastogenesis (proliferation measure by DNA synthesis), in order to be able to assess the phenomena of amplification.
1. Sacrifice two mice/experimental group by cervical dislocation.
14. […]
15. Include in the experiment a control plate which contains the same cells group as above, but receive a 0.1 ml of media instead of mitogen.
18. After 48 hours all wells receive 0.025 mls of a 0.4 microcurie/ml solution of C-14 methyl thymidine and incubate at 37 C, 5% CO-2 for 18 hours.

Structure (SMILES): CC(=O)CCC1(O)C(=O)OC2C(O)COC21O (stereo not drawn) [KBBL, 2-(3-Ketobutyl)-2-Hydroxy-3-Keto-4-Dihydroxyethyl Butyrolactone <3, 6> Cyclohemiketal]
- % INCREASE ([1]; 50 mg/kg (Table 11)): 70.2%
- PFC ([1]; 50 mg/kg (Table 11)): 36.0 PFC/1 MILLION CELLS
- % INCREASE ([1]; 100 mg/kg (Table 11)): 104.3%
- PFC ([1]; 100 mg/kg (Table 11)): 48.0 PFC/1 MILLION CELLS
- % INCREASE ([1]; 200 mg/kg (Table 11)): 106.4%
- PFC ([1]; 200 mg/kg (Table 11)): 48.5 PFC/1 MILLION CELLS
- CON-A 1.5 ug ([2]; 25 mg/kg (Table 9)): 3572
- CON-A 2.25 ug ([2]; 25 mg/kg (Table 9)): 5398
- PHA 10.5 ug ([2]; 25 mg/kg (Table 9)): 7935
- PHA 14 ug ([2]; 25 mg/kg (Table 9)): 10994
- RPMI CONTROL ([2]; 25 mg/kg): 255
- CON-A 1.5 ug ([2]; 50 mg/kg (Table 9)): 2539
- CON-A 2.25 ug ([2]; 50 mg/kg (Table 9)): 5802
- PHA 10.5 ug ([2]; 50 mg/kg (Table 9)): 4579
- PHA 14 ug ([2]; 50 mg/kg (Table 9)): 7295
- RPMI CONTROL ([2]; 50 mg/kg): 92
- CON-A 1.5 ug ([2]; 100 mg/kg (Table 9)): 1051
- CON-A 2.25 ug ([2]; 100 mg/kg (Table 9)): 3056
- PHA 10.5 ug ([2]; 100 mg/kg (Table 9)): 3540
- PHA 14 ug ([2]; 100 mg/kg (Table 9)): 4878
- RPMI CONTROL ([2]; 100 mg/kg): 33
- CON-A 1.5 ug ([2]; 200 mg/kg (Table 9)): 2571
- CON-A 2.25 ug ([2]; 200 mg/kg (Table 9)): 6891
- PHA 14 ug ([2]; 200 mg/kg (Table 9)): 6963
- RPMI CONTROL ([2]; 200 mg/kg): 55
- activation at 25 mg/kg ([2]; 25 mg/kg (Table 9), read-out: % INCR. (CON-A 1.5 ug)): 663%
- activation at 25 mg/kg ([2]; 25 mg/kg (Table 9), read-out: % INCR. (CON-A 2.25 ug)): 260%
- activation at 25 mg/kg ([2]; 25 mg/kg (Table 9), read-out: % INCR. (PHA 10.5 ug)): 356%
- activation at 25 mg/kg ([2]; 25 mg/kg (Table 9), read-out: % INCR. (PHA 14 ug)): 373%
- activation at 50 mg/kg ([2]; 50 mg/kg (Table 9), read-out: % INCR. (CON-A 1.5 ug)): 443%
- activation at 50 mg/kg ([2]; 50 mg/kg (Table 9), read-out: % INCR. (CON-A 2.25 ug)): 285%
- activation at 50 mg/kg ([2]; 50 mg/kg (Table 9), read-out: % INCR. (PHA 10.5 ug)): 163%
- activation at 50 mg/kg ([2]; 50 mg/kg (Table 9), read-out: % INCR. (PHA 14 ug)): 214%
- activation at 100 mg/kg ([2]; 100 mg/kg (Table 9), read-out: % INCR. (CON-A 1.5 ug)): 54%
- activation at 100 mg/kg ([2]; 100 mg/kg (Table 9), read-out: % INCR. (CON-A 2.25 ug)): 103%
- activation at 100 mg/kg ([2]; 100 mg/kg (Table 9), read-out: % INCR. (PHA 10.5 ug)): 103%
- activation at 100 mg/kg ([2]; 100 mg/kg (Table 9), read-out: % INCR. (PHA 14 ug)): 110%
- activation at 200 mg/kg ([2]; 200 mg/kg (Table 9), read-out: % INCR. (CON-A 1.5 ug)): 449%
- activation at 200 mg/kg ([2]; 200 mg/kg (Table 9), read-out: % INCR. (CON-A 2.25 ug)): 357%
- activation at 200 mg/kg ([2]; 200 mg/kg (Table 9), read-out: % INCR. (PHA 10.5 ug)): 171%
- activation at 200 mg/kg ([2]; 200 mg/kg (Table 9), read-out: % INCR. (PHA 14 ug)): 200%
- stimulation at all doses ([2]; all doses of PHA and Con-A, 25-200 mg/kg): stimulatory at all the doses of PHA and Con-A tested
